Source: PubChem BioAssay (NCI)
Where “and” joins values, the source holds several entries; their conditions need not be identical. Equal entries are not always repeated.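 Compound exposure: 48 hours, 5 concentrations, 96-well plates. GI50 = concentration required for 50% inhibition of growth. Definition used: TGI = concentration required for complete inhibition of growth.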

Key:
Assay in all cases: growth of human tumour cells (NCI), 48 h
OVCAR-4 ovarian = system: OVCAR-4 ovarian
HCT-15 colon = system: HCT-15 colon
SF-295 CNS = system: SF-295 CNS
KM12 colon = system: KM12 colon
HOP-92 NSCLC = system: HOP-92 NSCLC
HCC-2998 colon = system: HCC-2998 colon
OVCAR-8 ovarian = system: OVCAR-8 ovarian
SW-620 colon = system: SW-620 colon
NCI-H522 lung = system: NCI-H522 lung
M14 melanoma = system: M14 melanoma

| Structure (SMILES) | GI50 (OVCAR-4 ovarian) | TGI (OVCAR-4 ovarian) [µM] | GI50 (HCT-15 colon) | TGI (HCT-15 colon) | GI50 (SF-295 CNS) [µM] | TGI (SF-295 CNS) [µM] | GI50 (KM12 colon) | TGI (KM12 colon) | GI50 (HOP-92 NSCLC) | TGI (HOP-92 NSCLC) | GI50 (HCC-2998 colon) | TGI (HCC-2998 colon) | GI50 (OVCAR-8 ovarian) | TGI (OVCAR-8 ovarian) | GI50 (SW-620 colon) [µM] | TGI (SW-620 colon) | GI50 (NCI-H522 lung) [µM] | TGI (NCI-H522 lung) | GI50 (M14 melanoma) | TGI (M14 melanoma) [µM] |
| --- | --- | --- | --- | --- | --- | --- | --- | --- | --- | --- | --- | --- | --- | --- | --- | --- | --- | --- | --- | --- |
| COc1ccc(-c2c(N)n[nH]c2-c2cc(OC)c(OC)c(OC)c2)cc1 | 1.62 µM | > 100 | 0.285 µM | > 100 µM | 0.0758 | > 100 | 0.0594 µM | 18 µM | 0.499 µM | > 100 µM | 0.286 µM | 19.8 µM | 0.424 µM | > 100 µM | 0.0587 | > 100 µM | 0.223 | 24 µM | 0.135 µM | > 100 |
| O=C(O)C(=O)CBr | 17.5 µM and 17.4 µM | 31.4 | > 35.2 µM and 17.3 µM | > 53.1 µM and 33.1 µM | > 100 | > 100 | > 100 µM and 19 µM | > 100 µM and 34.5 µM | > 33.2 µM and 19.1 µM | > 49.9 µM and 34 µM | > 100 µM and 19.3 µM | > 100 µM and 36.3 µM | > 43.4 µM and 19.5 µM | > 59.7 µM and 36.7 µM | 6.8 | > 35.3 µM and 21.6 µM | 2.22 | > 31.9 µM and 4.66 µM | > 89.1 µM and 44 µM | > 100 |
| COC(=O)Cc1nc2ccccc2o1 |  | > 100 |  | > 100 µM |  | > 100 |  | > 100 µM |  | > 100 µM |  | > 100 µM |  | > 100 µM |  | > 100 µM |  | > 100 µM |  | > 100 |
| CN(C)CCNc1nc2ccccc2c2c(=O)c3ccccc3sc12 | 2.85 µM | 11.1 | 1.97 µM | 4.85 µM | 1.76 | 4.03 | 1.71 µM | 3.72 µM | 1.68 µM | 6.73 µM | 1.74 µM | 3.46 µM | 2.36 µM | 6.92 µM | 1.39 | 3.12 µM | 1.7 | 3.41 µM | 1.86 µM | 3.62 |
| COc1cc(C2c3cc4c(cc3[C@@H](Nc3ccc(N)cc3)C3COC(=O)[C@H]23)OCO4)cc(OC)c1O (stereo not given in full) |  | 41.6 |  | 22.6 µM | 0.502 | 4.76 |  | 14.3 µM | 0.495 µM |  |  | 9.07 µM | 0.87 µM | 15.8 µM | 0.823 | 24.5 µM | 0.789 | 6.57 µM | 0.652 µM | 18.6 |
| COc1ccc(/C=N/N=C(\[O-])c2ccncc2)cc1F.COc1ccc(/C=N\N=C(/[O-])c2ccncc2)cc1F.[Cu+2] | 18.5 µM | 34.5 | 52.6 µM | > 100 µM | 11.2 | 26.5 | 16.2 µM | 39 µM | 19.1 µM | 38.6 µM | 32.9 µM | > 100 µM | 13.8 µM | 27.5 µM | 35.7 | > 100 µM | 12.7 | 26.1 µM | 47.2 µM | > 100 |
